Measured values as given in US20220176011A1, “SCAR REDUCING WOUND CLOSURE MATERIALS” (Lankenau Institute for Medical Research, priority 2019, published 2022).

System: HIF1a protein activity
Test: In vitro drug release from suture into DMEM medium, read out by HIF1a luciferase assay
Assay type: cell-based
Method: FIG. 1 is a graph plotting drug release in vitro from poly(lactic acid)/poly(lactic-co-glycolic acid (PLA/PLGA) sutures over time. Briefly, a mixture of PLA and PLA/GPLA suture was infused with 1,4-DPCA molecules during generation of the sutures. The concentration of DPCA was in all cases 5 mg/100 mg suture material as described below. The sutures, having different ratios of PLA and PLA/PLGA as described below, were tested for rate of drug release. Drug release was measured by HIF levels. The sutures were soaked in medium without serum for 24 hours and transferred to new medium for each timepoint identified on the graph. The medium was tested for HIF1a protein activity in a luciferase assay. The horizontal lines are controls as noted: at about 10000 luminescence units (LU) is a control for DMEM only; at about 18000 LU is a control for 25 μM DCPA; at about 29500 LU is a control for 50 μM DCPA; at about 39000 LU is a control for 100 μM DCPA; and at about 40500 LU is a control for 200 μM DCPA. The curve that is substantially at 10000 LU but dips below at day 12 represents a mixture of PLA and PLA/PLGA [50:50] at a ratio of 75 PLA:25 PLA/PLGA. The curve that starts below 10000 LU and increases to about 15000 LU at day 14.5 is PLA and PLA/PLGA [50:50] at a ratio of 75:25+DPCA. The curve that starts above 50000 and has a peak at day 15 above 40000 LU is PLA and PLA/PLGA[50:50] at a ratio of 50:50+DPCA. The curve that starts above 50000 LU and has a peak at day 7.5 at about 34000 LU represents PLA and PLA/PLGA [50:50] at a ratio of 75:25+DPCA.
A PLA/PGLA suture, infused with 1,4-DPCA molecules during generation of the sutures as described in Example 1 (i.e., materials are melted, DPCA added, and the final mixture cooled and pulled into sutures), was tested for rate of release of 1,4-DPCA into DMEM medium. Drug release was measured by HIF levels. The sutures were soaked in medium without serum for 24 hours and transferred to new medium for each timepoint (1 hour, 3 hours, Days 1, 2, 3, 6, 7, 8, 9, 10, 13, 14, 15, 16, 17 and 20). The medium was tested for HIF1a protein activity in a luciferase assay (Signosis, Inc) as described in ESKLA, K-L et al, Hypothermia augments stress response in mammalian cells. Free Radical Biology and Medicine, 2018 doi:10.1016/j.freeradbiomed.2018.04.571.
The results are shown in the graph at FIG. 1. The two heavy lines represented PLA/PLGA[50:50] 50:50+DPCA and PLA/PLGA[50:50] 75:25+DPCA are shown releasing the drug after one hour in the medium up to about 15 days in the medium after which the drug detection falls under the DMEM control.

## O=C(O)c1c[nH]c2c(ccc3cccnc32)c1=O [DCPA, 1,4-dihydrophenonthrolin-4-one-3-carboxylic acid]
25 μM free drug control
  luminescence (HIF1a luciferase assay), control line: about 18000 LU
50 μM free drug control
  luminescence (HIF1a luciferase assay), control line: about 29500 LU
100 μM free drug control
  luminescence (HIF1a luciferase assay), control line: about 39000 LU
200 μM free drug control
  luminescence (HIF1a luciferase assay), control line: about 40500 LU
